{"source": "patent US11845803B2", "about": "“Combination therapies for treatment of BCMA-related cancers and autoimmune disorders” (Fred Hutchinson Cancer Center, priority 2017, dated 2023)", "key": {"[1]": {"system": "MM.1R myeloma cells in NSG mice", "test": "GSI activity in disseminated MM.1R xenograft model (surface BCMA, serum sBCMA)", "type": "in vivo, mouse", "method": "(A) Experimental scheme for a disseminated xenograft murine myeloma model. NSG mice were irradiated (275 rad) to facilitate tumor engraftment and received human MM tumor cells (5×10^6 MM.1R) followed by GSI treatment (30 mg/kg). […] (B) Fold change in surface BCMA expression on myeloma cells in mice euthanized at the indicated timepoints following the second GSI administration. (C) Levels of sBCMA in sera from mouse sacrificed at the indicated timepoints after administration of RO4929097. To investigate whether the sBCMA-inhibiting effects of GSI RO4929097 described in Example 4 could be replicated in vivo, a mouse xenograft model of human MM was tested as illustrated in FIG. 6A. Briefly, immunodeficient NOD/SCID gamma (NSG) mice (The Jackson Laboratory) received sublethal irradiation (275 rad) at day −1, followed by 5×10^6 MM.1R cells the next day (day 0). GSI RO4929097 (30 mg/kg) was administered by oral gavage at day 19 and day 20. Mice were sacrificed at different times after the second gavage administration of the GSI and blood and bone marrow samples were taken for analysis. GSI dosing was followed by a rapid increase (>3-fold by 4 hours post-second gavage) in surface BCMA expression on the tumor cells (FIG. 6B) and a concurrent decrease in sBCMA (FIG. 6C)."}, "[2]": {"system": "CD19 CAR-T cells co-cultured with Raji or K562/CD19+ target cells", "test": "CD19 CAR-T cell viability and effector function in the presence of GSI", "type": "cell-based, human", "method": "(A) CD19 staining of K562 CD19^+ and Raji cells that were cultured with or without GSI for ±12-16 h. Isotype control shown as gray line.\n(C) CD19 CAR-T cells were co-cultured with K562/CD19 target cells in media containing various concentrations of RO4929097. RO4929097 inhibits CD19 CAR-T cell effector function at concentrations of 3 μM when co-cultured, as determined by measuring IL-2 (upper panel) and IFNγ (lower panel) production.\n(D) IL-2 production by CD19 CAR-T cells cultured with target cells in the presence of increasing concentrations of GSI RO4929097.\n(E) IL-2 production by CD19 CAR-T cells cultured with target cells (“K562 CD19”) or control cells (“KS562 BCMA”) in the presence of increasing concentrations of GSI RO4929097. Cells were administered the indicated amounts of the GSI and then washed (empty bars) or not (filled bars).\n(F) Data from another experiment showing IL-2 production by CD19 CAR-T cells after overnight co-culture with K562 BCMA^+ or K562 CD19^+ cells following pre-incubation with varying concentrations of GSI. After washing, GSI was either added back in (+/+) or left out of the co-culture (+/−) to assess the reversibility of cytokine production.\n(G) Specific lysis, by CD19 CAR-T cells, of the indicated target or control cells in the presence of GSI RO4929097.\n(H) Proliferation of CD19 CAR-T cells cultured with CD19-expressing target cells in the presence or absence of GSI or with control cells in the absence of GSI. Cells were stained with CFSE and proliferation was measured by flow cytometry.\n(I) Graphic representation of the number of cell divisions of CD19 CAR-T cells in the presence of the indicated concentrations of GSI RO4929097. The width of the horizontal bars represents the proportion of CAR-T cells in culture that divided the indicated number of generations (i.e., 5, 4, 3, 2, 1, or 0 generations) over the course of the experiment.\n[…] Cell counts (CD8 staining) during expansion of CD19-specific CAR-T cells with CD19^+ TM LCL cells and exogenous IL-2 in the absence of GSI (circle) or the presence of GSI at 0.5 μM (square) or 5 μM (triangle).\n(K) Cell counts of CD19-specific CAR-T cells (CD4:CD8 (1:1) expanded with CD19^+ TM. LCL cells in the absence or presence of GSI as indicated, but without the addition of exogenous IL-2.\n(L) IFN-γ concentrations in supernatants of GSI-expanded anti-CD19 CAR CD8^+ T cells following re-stimulation with K562 cells (no antigen), K562 CD19^+ cells, or Raji cells.\n(M, N) Production of IFN-γ (M) and IL-2 (N) by the CD4:CD8 anti-CD19 CAR-T cell mixture following re-stimulation with the indicated cell lines in the absence of GSI or the presence of either 0.5 μM or 5 μM GSI.\nWithout wishing to be bound by theory, a potential caveat of using GSI to augment BCMA on myeloma cells to improve CAR-T cell recognition is that high concentrations of GSI may inhibit T-cell signaling and effector functions. See Eagar et al., Immunity 20(4):407, 2004. To evaluate potential effects of GSI on CAR T cells in a setting where target ligand expression remains stable, CD19 CAR-T cells were co-cultured with Raji or K562/CD19^+ target cells in the presence of GSI (0.01 μM to 100 μM) and measured viability and effector function. Over this concentration range there was no effect on CD19 antigen expression (FIG. 5A) or on CAR-T cell viability after 24 hours (FIG. 5B). […] However, the ability of the CD19 CAR-T cells to specifically kill target cells was not affected by GSI concentration (FIG. 5G). […] To further investigate the dosage effect of GSI on CAR-T cell division, a dose titration of GSI RO4929097 was added to co-cultures of CD19 CAR-T and target cells."}, "[3]": {"conditions": "expanded in 5 μM, 0.5 μM or no GSI"}}}
{"smiles": "CC(C)(C(=O)NCC(F)(F)C(F)(F)F)C(=O)N[C@@H]1C(=O)Nc2ccccc2-c2ccccc21", "note": "[RO4929097]", "values": [{"measurement": "time after second gavage within which observed effects were generally reduced", "setting": "[1]; 30 mg/kg oral gavage", "result": "≤ 48", "unit": "h"}, {"measurement": "sBCMA in sera", "setting": "[1]; 30 mg/kg oral gavage day 19 and 20", "result": "decrease"}, {"measurement": "increase in surface BCMA expression on tumor cells", "setting": "[1]; 30 mg/kg oral gavage day 19 and 20, 4 hours post-second gavage", "result": "> 3", "unit": "fold"}, {"measurement": "proliferation of CD19 CAR-T cells in response to target cells", "setting": "[2]; 10 μM GSI vs absence of GSI", "result": "less effectively"}, {"measurement": "expansion of CD19 CAR-T cells", "setting": "[2]; 8 days in culture with or without exogenous IL-2, GSI 0.5 or 5 μM", "result": "did not show a decrease in expansion"}, {"measurement": "CD19 antigen expression on target cells", "setting": "[2]; GSI 0.01 μM to 100 μM", "result": "no effect"}, {"measurement": "CAR-T cell viability", "setting": "[2]; GSI 0.01 μM to 100 μM, 24 hours", "result": "no effect"}, {"measurement": "T cell function (cytokine production, cell lysis activity, proliferation)", "setting": "[2]; GSI at therapeutic levels", "result": "does not affect T cell function"}, {"measurement": "IFN-γ production on re-stimulation after expansion in GSI", "setting": "[2]; [3]", "result": "did not show a significant difference"}, {"measurement": "IL-2 production on re-stimulation after expansion in GSI", "setting": "[2]; [3]", "result": "not markedly different"}, {"measurement": "CAR-T cell division", "setting": "[2]; non-therapeutic dose (10 μM)", "result": "detectably inhibit proliferation"}, {"measurement": "specific killing of target cells by CD19 CAR-T cells", "setting": "[2]; range of GSI concentrations", "result": "not affected"}, {"measurement": "CAR-T cell division", "setting": "[2]; therapeutic doses of GSI (0.01 μM-1 μM)", "result": "essentially unaffected or only slightly affected"}]}
